In PubChem BioAssay (NCI):
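GI50: concentration for 50% inhibition of growth. TGI is the concentration that stops growth completely.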

Legend:
Assay in all cases: NCI-60 cell line screen, 384-well format
786-0 renal = tested on: 786-0 renal
A498 renal = tested on: A498 renal
A549 NSCLC = tested on: A549 NSCLC
ACHN renal = tested on: ACHN renal
BT-549 breast = tested on: BT-549 breast
CAKI-1 renal = tested on: CAKI-1 renal
COLO 205 colon = tested on: COLO 205 colon
DU-145 prostate = tested on: DU-145 prostate
EKVX NSCLC = tested on: EKVX NSCLC
HCC-2998 colon = tested on: HCC-2998 colon
HCT-116 colon = tested on: HCT-116 colon
HCT-15 colon = tested on: HCT-15 colon
HL-60(TB) leukemia = tested on: HL-60(TB) leukemia
HOP-62 NSCLC = tested on: HOP-62 NSCLC
HOP-92 NSCLC = tested on: HOP-92 NSCLC
HS 578T breast = tested on: HS 578T breast
HT29 colon = tested on: HT29 colon
IGROV1 ovarian = tested on: IGROV1 ovarian
KM12 colon = tested on: KM12 colon
LOX IMVI melanoma = tested on: LOX IMVI melanoma
M14 melanoma = tested on: M14 melanoma
MALME-3M melanoma = tested on: MALME-3M melanoma
MCF7 breast = tested on: MCF7 breast
MDA-MB-231 breast = tested on: MDA-MB-231 breast
MDA-MB-435 melanoma = tested on: MDA-MB-435 melanoma
MDA-MB-468 breast = tested on: MDA-MB-468 breast
MOLT-4 leukemia = tested on: MOLT-4 leukemia
NCI-H226 lung = tested on: NCI-H226 lung
NCI-H23 lung = tested on: NCI-H23 lung
NCI-H322M lung = tested on: NCI-H322M lung
NCI-H460 NSCLC = tested on: NCI-H460 NSCLC
NCI-H522 lung = tested on: NCI-H522 lung
NCI/ADR-RES ovarian = tested on: NCI/ADR-RES ovarian
OVCAR-3 ovarian = tested on: OVCAR-3 ovarian
OVCAR-4 ovarian = tested on: OVCAR-4 ovarian
OVCAR-5 ovarian = tested on: OVCAR-5 ovarian
OVCAR-8 ovarian = tested on: OVCAR-8 ovarian
PC-3 prostate = tested on: PC-3 prostate
RPMI-8226 leukemia = tested on: RPMI-8226 leukemia
RXF 393 renal = tested on: RXF 393 renal
SF-268 CNS = tested on: SF-268 CNS
SF-295 CNS = tested on: SF-295 CNS
SF-539 CNS = tested on: SF-539 CNS
SK-MEL-28 melanoma = tested on: SK-MEL-28 melanoma
SK-MEL-5 melanoma = tested on: SK-MEL-5 melanoma
SK-OV-3 ovarian = tested on: SK-OV-3 ovarian
SN12C renal = tested on: SN12C renal
SNB-19 CNS = tested on: SNB-19 CNS
SNB-75 CNS = tested on: SNB-75 CNS
SR leukemia = tested on: SR leukemia
SW-620 colon = tested on: SW-620 colon
T-47D breast = tested on: T-47D breast
TK-10 renal = tested on: TK-10 renal
U251 glioblastoma = tested on: U251 glioblastoma
UACC-257 melanoma = tested on: UACC-257 melanoma
UACC-62 melanoma = tested on: UACC-62 melanoma
UO-31 renal = tested on: UO-31 renal

C[C@]12CC[C@@H]3c4ccc(OC(=O)N(CCCl)CCCl)cc4CC[C@H]3[C@@H]1CC[C@@H]2OP(=O)(O)O
GI50 (786-0 renal): > 100 µM
TGI (786-0 renal): > 100 µM
GI50 (A498 renal): > 100 µM
TGI (A498 renal): > 100 µM
GI50 (A549 NSCLC): > 100 µM
TGI (A549 NSCLC): > 100 µM
GI50 (ACHN renal): > 100 µM
TGI (ACHN renal): > 100 µM
GI50 (BT-549 breast): 25 µM
TGI (BT-549 breast): > 100 µM
GI50 (CAKI-1 renal): > 100 µM
TGI (CAKI-1 renal): > 100 µM
GI50 (COLO 205 colon): > 100 µM
TGI (COLO 205 colon): > 100 µM
GI50 (DU-145 prostate): > 100 µM
TGI (DU-145 prostate): > 100 µM
GI50 (EKVX NSCLC): > 100 µM
TGI (EKVX NSCLC): > 100 µM
GI50 (HCC-2998 colon): > 100 µM
TGI (HCC-2998 colon): > 100 µM
GI50 (HCT-116 colon): > 100 µM
TGI (HCT-116 colon): > 100 µM
GI50 (HCT-15 colon): > 100 µM
TGI (HCT-15 colon): > 100 µM
GI50 (HL-60(TB) leukemia): > 100 µM
TGI (HL-60(TB) leukemia): > 100 µM
GI50 (HOP-62 NSCLC): > 100 µM
TGI (HOP-62 NSCLC): > 100 µM
GI50 (HOP-92 NSCLC): > 100 µM
TGI (HOP-92 NSCLC): > 100 µM
GI50 (HS 578T breast): > 100 µM
TGI (HS 578T breast): > 100 µM
GI50 (HT29 colon): > 100 µM
TGI (HT29 colon): > 100 µM
GI50 (IGROV1 ovarian): > 100 µM
TGI (IGROV1 ovarian): > 100 µM
GI50 (KM12 colon): > 100 µM
TGI (KM12 colon): > 100 µM
GI50 (LOX IMVI melanoma): > 100 µM
TGI (LOX IMVI melanoma): > 100 µM
GI50 (M14 melanoma): > 100 µM
TGI (M14 melanoma): > 100 µM
GI50 (MALME-3M melanoma): > 100 µM
TGI (MALME-3M melanoma): > 100 µM
GI50 (MCF7 breast): > 100 µM
TGI (MCF7 breast): > 100 µM
GI50 (MDA-MB-231 breast): > 100 µM
TGI (MDA-MB-231 breast): > 100 µM
GI50 (MDA-MB-435 melanoma): 41.2 µM
TGI (MDA-MB-435 melanoma): > 100 µM
GI50 (MDA-MB-468 breast): > 100 µM
TGI (MDA-MB-468 breast): > 100 µM
GI50 (MOLT-4 leukemia): > 100 µM
TGI (MOLT-4 leukemia): > 100 µM
GI50 (NCI-H226 lung): > 100 µM
TGI (NCI-H226 lung): > 100 µM
GI50 (NCI-H23 lung): > 100 µM
TGI (NCI-H23 lung): > 100 µM
GI50 (NCI-H322M lung): > 100 µM
TGI (NCI-H322M lung): > 100 µM
GI50 (NCI-H460 NSCLC): > 100 µM
TGI (NCI-H460 NSCLC): > 100 µM
GI50 (NCI-H522 lung): > 100 µM
TGI (NCI-H522 lung): > 100 µM
GI50 (NCI/ADR-RES ovarian): > 100 µM
TGI (NCI/ADR-RES ovarian): > 100 µM
GI50 (OVCAR-3 ovarian): > 100 µM
TGI (OVCAR-3 ovarian): > 100 µM
GI50 (OVCAR-4 ovarian): > 100 µM
TGI (OVCAR-4 ovarian): > 100 µM
GI50 (OVCAR-5 ovarian): > 100 µM
TGI (OVCAR-5 ovarian): > 100 µM
GI50 (OVCAR-8 ovarian): > 100 µM
TGI (OVCAR-8 ovarian): > 100 µM
GI50 (PC-3 prostate): > 100 µM
TGI (PC-3 prostate): > 100 µM
GI50 (RPMI-8226 leukemia): > 100 µM
TGI (RPMI-8226 leukemia): > 100 µM
GI50 (RXF 393 renal): 47.7 µM
TGI (RXF 393 renal): > 100 µM
GI50 (SF-268 CNS): > 100 µM
TGI (SF-268 CNS): > 100 µM
GI50 (SF-295 CNS): > 100 µM
TGI (SF-295 CNS): > 100 µM
GI50 (SF-539 CNS): > 100 µM
TGI (SF-539 CNS): > 100 µM
GI50 (SK-MEL-28 melanoma): > 100 µM
TGI (SK-MEL-28 melanoma): > 100 µM
GI50 (SK-MEL-5 melanoma): > 100 µM
TGI (SK-MEL-5 melanoma): > 100 µM
GI50 (SK-OV-3 ovarian): > 100 µM
TGI (SK-OV-3 ovarian): > 100 µM
GI50 (SN12C renal): > 100 µM
TGI (SN12C renal): > 100 µM
GI50 (SNB-19 CNS): > 100 µM
TGI (SNB-19 CNS): > 100 µM
GI50 (SNB-75 CNS): > 100 µM
TGI (SNB-75 CNS): > 100 µM
GI50 (SR leukemia): > 100 µM
TGI (SR leukemia): > 100 µM
GI50 (SW-620 colon): > 100 µM
TGI (SW-620 colon): > 100 µM
GI50 (T-47D breast): > 100 µM
TGI (T-47D breast): > 100 µM
GI50 (TK-10 renal): > 100 µM
TGI (TK-10 renal): > 100 µM
GI50 (U251 glioblastoma): > 100 µM
TGI (U251 glioblastoma): > 100 µM
GI50 (UACC-257 melanoma): > 100 µM
TGI (UACC-257 melanoma): > 100 µM
GI50 (UACC-62 melanoma): > 100 µM
TGI (UACC-62 melanoma): > 100 µM
GI50 (UO-31 renal): > 100 µM
TGI (UO-31 renal): > 100 µM
